{
  "source": "paper PMC8838585",
  "about": "“Development and Validation of a Novel HPLC Method to Analyse Metabolic Reaction Products Catalysed by the CYP3A2 Isoform: In Vitro Inhibition of CYP3A2 Enzyme Activity by Aspirin (Drugs Often Used Together in COVID-19 Treatment)” (Molecules, 2022)",
  "molecules": {"B1": {"name": "CYP3A2 (Rattus norvegicus) (protein)", "chain": "MDLLSALTLETWVLLAVILVLLYRLGTHRHGIFKKQGIPGPKPLPFLGTVLNYYKGLGRFDMECYKKYGKIWGLFDGQTPVFAIMDTEMIKNVLVKECFSVFTNRRDFGPVGIMGKAVSVAKDEEWKRYRALLSPTFTSGRLKEMFPIIEQYGDILVKYLKQEAETGKPVTMKKVFGAYSMDVITSTSFGVNVDSLNNPKDPFVEKTKKLLRFDFFDPLFLSVVLFPFLTPIYEMLNICMFPKDSIAFFQKFVHRIKETRLDSKHKHRVDFLQLMLNAHNNSKDEVSHKALSDVEIIAQSVIFIFAGYETTSSTLSFVLYFLATHPDIQKKLQEEIDGALPSKAPPTYDIVMEMEYLDMVLNETLRLYPIGNRLERVCKKDIELDGLFIPKGSVVTIPTYALHHDPQHWPKPEEFHPERFSKENKGSIDPYVYLPFGNGPRNCIGMRFALMNMKLALTKVLQNFSFQPCKETQIPLKLSRQAILEPEKPIVLKVLPRDAVINGA"}},
  "key": {"[1]": {"experiment": "Solution stability of working standards at ambient temperature, intraday and interday, HPLC", "assay_type": "physicochemical", "settings": "for Solution stability: intraday and interday analysis", "experimental": "Stability samples were analyzed in triplicate.\nExperiments were performed in triplicate, and the results are summarized below in Table 8."}, "[2]": {"biological_target": "T1, CYP3A2 (Rattus norvegicus, UniProt P05183)", "T1 construct": "tissue Merck; host or cells: pooled liver microsomes from male Sprague Dawley rats", "T1 sequence (P05183 1-504)": "B1 chain", "experiment": "Inhibition of dexamethasone 6β-hydroxylation (CYP3A2 activity) by aspirin in rat liver microsomes, HPLC", "assay_type": "in vitro ADME", "settings": "for Clint: Vmax/Km; for Vmax: n = 3", "experimental": "Assay development and validation were carried out using a LC-2010A HT Module HPLC system (Shimadzu, Toyko, Japan). […] The chromatographic separation was performed at 25 °C and at a flow rate of 0.6 mL/min. A 10 µL solution volume was injected for HPLC analysis, and all the components were detected at the 243 nm wavelength. Table 11 provides information concerning efficiency (N), where N = 5.54 × (tR/W½) and W½ = width at half peak height; plate height (H), where H(cm) = column length/N; asymmetry factor (AsF), where AsF = B/A, and A is the distance from the leading edge of the peak to the midpoint of the peak measured at 10% of peak height, and B is the distance from the midpoint of the peak to the trailing edge of the peak measured at 10% of the peak height; and resolution (Rs), where Rs = 2∆tR/0.5(W1 + W2), and W is the width at the peak base.\nIce-cold-grade acetonitrile containing 15 µM 4-hydroxyoctanophenone (as an internal standard) was added to terminate the reaction. […] The polar extracts were evaporated to dryness, and the residues were dissolved in the mobile phase (70% acetonitrile and 30% water, v/v) and made up to 1000 µL in volume. An amount of 10 µL of each sample was injected into the HPLC instrument for analysis.\nData were analysed using Microsoft Excel 2010 software for validation and the kinetic parameters. All results are shown as mean ± S.D. The least-square regression analysis was performed to calculate the concentration of the metabolite produced by the CYP reaction. Secondary Lineweaver–Burk plots and Michaelis–Menten plots were plotted to find kinetic parameters such as Ki, Vmax, Km, Clint, and α^,. Inhibition was assumed to be competitive based on the obtained data and based on a visual inspection of the Lineweaver–Burk plot. […] Km values were used to calculate the percentage of inhibition."}, "[3]": {"substrate": "C[C@@H]1C[C@H]2[C@@H]3CCC4=CC(=O)C=C[C@]4(C)[C@@]3(F)[C@@H](O)C[C@]2(C)[C@@]1(O)C(=O)CO", "experiment": "cells, lysate or membranes named", "settings": "other: 0 µM aspirin (no inhibitor), rat liver microsomes 0.5 mg/mL, n = 3; pH 7.4; 37.0 °C", "method": "Data were analysed using Microsoft Excel 2010 software for validation and the kinetic parameters. All results are shown as mean ± S.D. The least-square regression analysis was performed to calculate the concentration of the metabolite produced by the CYP reaction. Secondary Lineweaver–Burk plots and Michaelis–Menten plots were plotted to find kinetic parameters such as Ki, Vmax, Km, Clint, and α^,. […] Km values were used to calculate the percentage of inhibition."}, "[4]": {"settings": "male, rat, liver microsomes, pH 7.4, probe dexamethasone (6β-hydroxylation), 10, 20, 30, 40 and 50 µM"}},
  "note": "“Also recorded” adds a separate entry of the source.",
  "data": [
    {"molecule": "C[C@@H]1C[C@H]2[C@@H]3C[C@@H](O)C4=CC(=O)C=C[C@]4(C)[C@@]3(F)[C@@H](O)C[C@]2(C)[C@@]1(O)C(=O)CO", "note": "[6β-hydroxydexamethasone, 6β-Hydroxydexamethasone]", "values": [
      {"measurement": "% Recovery", "setting": "[1]; Interday 1, 0.3 µM", "result": 89.49, "unit": "%"},
      {"measurement": "% Recovery", "setting": "[1]; Interday 1, 0.5 µM", "result": 92.64, "unit": "%"},
      {"measurement": "% Recovery", "setting": "[1]; Interday 1, 0.85 µM", "result": 84.06, "unit": "%"},
      {"measurement": "% Recovery", "setting": "[1]; Interday 2, 0.3 µM", "result": 105.46, "unit": "%"},
      {"measurement": "% Recovery", "setting": "[1]; Interday 2, 0.5 µM", "result": 94.15, "unit": "%"},
      {"measurement": "% Recovery", "setting": "[1]; Interday 2, 0.85 µM", "result": 81.57, "unit": "%"},
      {"measurement": "% Recovery", "setting": "[1]; Interday 3, 0.3 µM", "result": 106.90, "unit": "%"},
      {"measurement": "% Recovery", "setting": "[1]; Interday 3, 0.5 µM", "result": 92.10, "unit": "%"},
      {"measurement": "% Recovery", "setting": "[1]; Interday 3, 0.85 µM", "result": 80.51, "unit": "%"},
      {"measurement": "% Recovery", "setting": "[1]; intraday 0 h, 0.3 µM", "result": 98.18, "unit": "%"},
      {"measurement": "% Recovery", "setting": "[1]; intraday 0 h, 0.5 µM", "result": 94.82, "unit": "%"},
      {"measurement": "% Recovery", "setting": "[1]; intraday 0 h, 0.85 µM", "result": 99.34, "unit": "%"},
      {"measurement": "% Recovery", "setting": "[1]; intraday 5 h, 0.3 µM", "result": 97.22, "unit": "%"},
      {"measurement": "% Recovery", "setting": "[1]; intraday 5 h, 0.5 µM", "result": 87.58, "unit": "%"},
      {"measurement": "% Recovery", "setting": "[1]; intraday 5 h, 0.85 µM", "result": 90.45, "unit": "%"},
      {"measurement": "% Recovery", "setting": "[1]; intraday 10 h, 0.3 µM", "result": 88.89, "unit": "%"},
      {"measurement": "% Recovery", "setting": "[1]; intraday 10 h, 0.5 µM", "result": 87.75, "unit": "%"},
      {"measurement": "% Recovery", "setting": "[1]; intraday 10 h, 0.85 µM", "result": 92.98, "unit": "%"},
      {"measurement": "Solution stability", "setting": "[1]", "result": "stable"}
    ]},
    {"molecule": "CC(=O)Oc1ccccc1C(=O)O", "note": "[Aspirin, acetylsalicylic acid]", "values": [
      {"measurement": "IC50", "setting": "[2]", "result": 191, "unit": "µM"},
      {"measurement": "á", "setting": "[2]; 50 µM aspirin", "result": "1.03 ± 0.01"},
      {"measurement": "á", "setting": "[2]; 100 µM aspirin", "result": "1.02 ± 0.06"},
      {"measurement": "á", "setting": "[2]; 200 µM aspirin", "result": "1.04 ± 0.01"},
      {"measurement": "Mode of inhibition of CYP3A2", "setting": "[2]; Lineweaver-Burk plot, rat liver microsomes", "result": "competitively inhibits; also recorded: competitive inhibitor"},
      {"measurement": "Clint", "setting": "[2]; with 50 µM aspirin", "result": "0.0005 ± 4.00 × 10^−6 µM^−2∙min^−1"},
      {"measurement": "Clint", "setting": "[2]; with 100 µM aspirin", "result": "0.0005 ± 5.00 × 10^−5 µM^−2∙min^−1"},
      {"measurement": "Clint", "setting": "[2]; with 200 µM aspirin", "result": "0.0004 ± 1.00 × 10^−5 µM^−2∙min^−1"},
      {"measurement": "Alpha prime (α') values", "setting": "[2]; aspirin 50, 100 and 200 µM", "result": "greater than 1.0"},
      {"measurement": "inhibition at 40 min, 50 µM", "setting": "[2]; [4]", "result": "12.4 ± 1.2", "unit": "%"},
      {"measurement": "inhibition at 40 min, 100 µM", "setting": "[2]; [4]", "result": "23.3 ± 3.3", "unit": "%"},
      {"measurement": "inhibition at 40 min, 200 µM", "setting": "[2]; [4]", "result": "53.6 ± 1.76", "unit": "%"},
      {"measurement": "Ki", "setting": "[2]; read-out: Ki (inhibition constant)", "result": 95.5, "unit": "µM"},
      {"measurement": "Strength of inhibition of CYP3A2 isoform activity", "setting": "[2]; weak if IC50 more than 50 µM", "result": "weak inhibitory effect"},
      {"measurement": "Vmax", "setting": "[2]; with 50 µM aspirin", "result": "0.0123 ± 1.15 × 10^−4 µM^−1∙min^−1"},
      {"measurement": "Vmax", "setting": "[2]; with 100 µM aspirin", "result": "0.0127 ± 7.94 × 10^−4 µM^−1∙min^−1"},
      {"measurement": "Vmax", "setting": "[2]; with 200 µM aspirin", "result": "0.0123 ± 1.73 × 10^−4 µM^−1∙min^−1"}
    ]},
    {"molecule": "C[C@@H]1C[C@H]2[C@@H]3CCC4=CC(=O)C=C[C@]4(C)[C@@]3(F)[C@@H](O)C[C@]2(C)[C@@]1(O)C(=O)CO", "note": "[Dexamethasone]", "values": [
      {"measurement": "% Recovery", "setting": "[1]; Interday 1, 40 µM", "result": 80.04, "unit": "%"},
      {"measurement": "% Recovery", "setting": "[1]; Interday 1, 110 µM", "result": 85.81, "unit": "%"},
      {"measurement": "% Recovery", "setting": "[1]; Interday 1, 185 µM", "result": 98.26, "unit": "%"},
      {"measurement": "% Recovery", "setting": "[1]; Interday 2, 40 µM", "result": 87.31, "unit": "%"},
      {"measurement": "% Recovery", "setting": "[1]; Interday 2, 110 µM", "result": 91.30, "unit": "%"},
      {"measurement": "% Recovery", "setting": "[1]; Interday 2, 185 µM", "result": 104.78, "unit": "%"},
      {"measurement": "% Recovery", "setting": "[1]; Interday 3, 40 µM", "result": 85.29, "unit": "%"},
      {"measurement": "% Recovery", "setting": "[1]; Interday 3, 110 µM", "result": 82.36, "unit": "%"},
      {"measurement": "% Recovery", "setting": "[1]; Interday 3, 185 µM", "result": 101.20, "unit": "%"},
      {"measurement": "% Recovery", "setting": "[1]; intraday 0 h, 40 µM", "result": 88.51, "unit": "%"},
      {"measurement": "% Recovery", "setting": "[1]; intraday 0 h, 110 µM", "result": 80.58, "unit": "%"},
      {"measurement": "% Recovery", "setting": "[1]; intraday 0 h, 185 µM", "result": 95.66, "unit": "%"},
      {"measurement": "% Recovery", "setting": "[1]; intraday 5 h, 40 µM", "result": 80.50, "unit": "%"},
      {"measurement": "% Recovery", "setting": "[1]; intraday 5 h, 110 µM", "result": 84.03, "unit": "%"},
      {"measurement": "% Recovery", "setting": "[1]; intraday 5 h, 185 µM", "result": 109.49, "unit": "%"},
      {"measurement": "% Recovery", "setting": "[1]; intraday 10 h, 40 µM", "result": 80.80, "unit": "%"},
      {"measurement": "% Recovery", "setting": "[1]; intraday 10 h, 110 µM", "result": 84.43, "unit": "%"},
      {"measurement": "% Recovery", "setting": "[1]; intraday 10 h, 185 µM", "result": 110.03, "unit": "%"},
      {"measurement": "Solution stability", "setting": "[1]", "result": "stable for up to three days"}
    ]},
    {"molecule": "B1", "values": [
      {"measurement": "Km", "setting": "[3]", "result": "21.23 ± 0.51", "unit": "µM"}
    ]}
  ]
}
